| melting point [°C] | SMILES |
| --- | --- |
| 190 to 192 | Cn1nc(C(=O)NCc2ccc(Cl)cc2)c(=O)c2cc(CN3CCOCC3)ccc21 |
| 95 to 97 | CCCCCN1Cc2cc(C)ccc2CCC1=O |
| 165 to 166 | O=C1NC(=O)c2ccc(Br)cc2/C1=C/Nc1ccc(CN2CCCC2)cc1 |
| 169 to 172 | COC(=O)[C@H](CSCc1ccccc1)NC(=O)Nc1n[nH]c(=S)s1 |
| 128 | O=S(=O)(OCC1OC2CC(CC(OS(=O)(=O)c3ccc(Br)cc3)C2)O1)c1ccc(Br)cc1 (stereo not drawn) |
| 105 to 108 | O=C(O)COc1ccc(C(=O)c2ccc(F)cc2)c2ccccc12 |
| 325 to 328 | O=C1NC(=S)SC1=Cc1ccnc2ccccc12 |
| 279 to 280 | CC1CCc2c(N3CCOCC3)c(F)cc3c(=O)c(C(=O)O)cn1c23 (stereo not drawn) |
| 164 to 167 | Cc1c(NC(=O)C(CSC(=O)c2cccs2)Cc2ccccc2)cccc1C(=O)O (stereo not drawn) |
| 185 to 190 | COc1ccc(C(=O)c2coc(C(=O)O)cc2=O)cc1 |
| 147 to 149 | COc1cc(C(=O)CBr)cc([N+](=O)[O-])c1O |
| 160 to 163 | Cc1ccccc1-c1cc(Cl)cc2c1OC(CN)C2 (stereo not drawn) |
| 245 to 246 | N#CCCNC(=O)c1n[nH]cc1NC(=O)c1ccc(C(F)(F)F)cc1 |
| 169 to 171 | O=C(Nc1cccc(F)c1)C1C(=O)Sc2ccccc21 (stereo not drawn) |
| 90 to 93 | COc1ccc2c(c1)CCC(CC#N)C2=O (stereo not drawn) |
| 235 | CCCc1ccc2c(c1)C=Cc1sc(C)nc1C2c1cn(C)c(=O)[nH]c1=S (stereo not drawn) |
| 203 to 204 | CON=C1CN(c2c(F)cc3c(=O)c(C(=O)O)cn(C4CC4)c3c2Cl)CC12CN(C(=O)OC(C)(C)C)C2 |
| 145 | COc1ccc(P(=O)(c2ccc(OC)cc2)c2ccc(OC)cc2)cc1 |
| 165 to 167 | COc1ccc(C(=O)NCc2c(C=O)cc(C)n2CCNC(C)=O)cc1OC |
| 249 to 251 | CCOC(=O)c1cn2c3c(c(C#N)ccc3c1=O)CCC2C (stereo not drawn) |
| 133 to 134 | CN(C)C(=O)Nc1ccc(SCCc2ccccc2)c(Cl)c1 |
| 140 to 142 | CCC(=O)n1c(=O)n(-c2ccc([N+](=O)[O-])cc2)c(=O)n1C(=O)CC |
| 139 to 141 | ON=Cc1ccc(-c2ccc(Cl)cc2)o1 |
| 150 to 152 | Cn1cc(-c2cnc3c(c2)ncn3Cc2ccc3ncccc3c2)cn1 |

| melting point [°C] | SMILES |
| --- | --- |
| 191 to 193 | O=C(Nc1ccc(C(=O)N2Cc3ccccc3Cc3ccccc32)cc1)c1ccccc1C(F)(F)F |
| > 350 | Cc1[nH]cc2c(=O)n(-c3ccc(Cl)cc3)nc-2c1-c1cccc(-n2cnnc2)c1 |
| 265 to 268 | CCCCc1c(/C=C/c2ccccc2OCC)nc2ccc(C(=O)O)cn2c1=O |
| 206 | Cc1cc(C)cc(NCc2ccc3nc(NC4CCN(CC(N)=O)CC4)n(Cc4nc(C)ccc4O)c3c2)c1 |
| 291 to 293 | O=C(CCn1c2ccc(O)cc2c2c3c(c(-c4ccccc4Cl)cc21)C(=O)NC3=O)NS(=O)(=O)c1ccccc1 |
| 134 | CCOC(=O)Cc1cc(O)c(C)cc1O |
| 140 to 141 | CN(C)C=Nc1c(Cl)cc(N=Cc2ccc(N(C)C)c(Br)c2)cc1Cl |
| 152 to 154 | O=c1oc(-c2ccc(OCc3ccc4ccccc4c3)cc2)cc(O)c1SCCc1ccccc1 |
| 70 to 72 | COc1ccc(Cc2sc3ccccc3c2-c2ccc(-c3ccc(OC(Cc4ccccc4)C(=O)O)cc3)cc2)c(OC)c1 (stereo not drawn) |
| 206 to 208 | NC1([C@@H]2CCN(c3ccc4c(=O)c(C(=O)O)cn(C5CC5)c4c3OC(F)F)C2)CC1 |
| 81.6 to 83.3 | O=C(O)c1ccc(Cl)cc1OCCN1CCC(c2cn(Cc3ccoc3)c3ncccc23)CC1 |
| 160 to 161 | Cc1ccc(C(=O)c2c(C)cc(CC(=O)O)n2C)cc1 |
| 143 to 144 | CCOC(=O)c1cc(C)cc(-c2ccc(N(C)C)cc2)n1 |
| 148 to 149 | CCC(=O)NC[C@@H]1C[C@H]1c1c(I)ccc2c1CCO2 (relative stereo) |
| 74 to 76 | CCCCCCCCCCCCCCCCCCOc1cc(N)cc(OCCCOc2ccccc2)c1 |
| 53 to 57 | CCCCNC(=O)C(C)(C)n1cc(C)c(-c2ccccc2)n1 |
| 66 to 68 | NC(=O)COCCN1CCN2c3ccccc3Cc3ccccc3C2C1 (stereo not drawn) |
| 167 to 168 | COc1cccc(CNC(=O)c2c(-c3ccc(F)cc3)c(-c3ccc(F)cc3)c(C=O)n2C(C)C)c1 |
| 92 to 93 | COC(=O)CCCCCCCCCCCCCCCNc1ccc(C(=O)OC)cc1 |
| 191 to 193 | CSc1ccccc1C1C(=O)c2ccccc2C1=O |
| 78.5 to 80.5 | Cn1cnc(C2C(Cl)=CC=CC2(F)Cc2ccc(Cl)cc2)n1 (stereo not drawn) |
| 119 to 120 | CC(=O)N(O)Cc1ccc(OCc2ccccc2)cc1 |
| 212 | CN1CCn2c1nc(C(=O)NCc1ccc(F)cc1)c(O)c2=O |
| 95.2 | CCCCCCCCCCCCCCCC(=O)OCC1(O)COC(O)(COC(=O)CCCCCCCCCCCCCCC)CO1 (stereo not drawn) |

| melting point [°C] | SMILES |
| --- | --- |
| 146 to 147 | COc1ccc(CSc2nnc(-c3ccc4nccn4c3)o2)cc1C(F)(F)F |
| 174 to 176 | Nc1cc(-c2ccnc3c(C(=O)c4cccs4)cnn23)cs1 |
| 61.5 to 62.5 | COC(=O)C(C)(SC)c1ccc(C(OC)(OC)c2ccccc2)s1 (stereo not drawn) |
| 87 | CCCCn1c(=O)n(CCCCC(C)=O)c(=O)c2c1ncn2CC(C)=O |
| 139 to 144 | COc1ccc(-c2cc(C(=O)NCCCCCCCCc3ccccc3)cc(-c3cccc(C(F)(F)F)c3)c2OCC(=O)O)cc1 |
| 64 to 66 | CCNC(=O)CCCC=CCC1C(O)CC(O)C1C=CC(O)CCc1ccccc1 (stereo not drawn) |
| 198 to 200 | CCCn1c(=O)c2c(nc(C=Cc3ccc(C(=O)OC)cc3OC)n2C)n(CCC)c1=O |
| 54 to 56 | CC(=O)c1ccc(C(Br)C(=O)OC(C)(C)C)cc1 (stereo not drawn) |
| > 250 | Cc1cn2nc(-c3ccccc3)nc2cc1N |
| 126 to 127 | N#CCCNC(=O)c1cccc(-c2cccn3cc(Cc4cccc(C(F)(F)F)c4)nc23)c1 |
| 106 to 109 | CCCCn1nnnc1-c1ccc(C(=O)NCC2CCCC2(C)C)cc1 (stereo not drawn) |
| 226 | CC(C)n1cc(-c2nc(C(N)=O)c(N)nc2-c2ccc(F)c(F)c2)ccc1=O |
| 27 to 30 | CCCCCCCCCCCC(CC1OC(=O)C1CCCCCC)OC(=O)C(N)CC(C)C (stereo not drawn) |
| 186 to 187 | CC(C)CP(=O)(CCC(=O)O)CCC(=O)O |
| 109 to 112 | CN(C)C(=O)N1CCC(C(=O)N(CCCN2CCC(Cc3ccccc3)CC2)c2ccc(Cl)c(Cl)c2)CC1 |
| 118 to 120 | O=S(=O)(/C=C/c1ccc(Cl)cc1)Nc1cccc(Cl)c1 |
| 117 | Cc1ccccc1CCC(C)(C)NC(=O)n1nc(N(C)C)n(N)c1=O |
| 115 | CC(C)(C)OC(=O)[C@@H]1CSC(C2CCCCC2)N1C(=O)CNC(=O)Nc1cccc(CC(=O)O)c1 (stereo partly drawn) |
| 227 to 229 | O=C(c1ccc([N+](=O)[O-])cc1)N1Cc2ccnn2Cc2ccccc21 |
| 136 to 138 | O=C1Nc2ccc(F)cc2OC1CCO (stereo not drawn) |
| 158 to 159 | CNC(=O)N(O)CCNC(=O)c1ccc2ccccc2n1 |
| 202 to 205 | CN(c1cncnc1)c1nc(N2CCOCC2)nc(-n2c(C(F)F)nc3ccccc32)n1 |
| 147 to 149 | NC(=O)OCC(Cc1ccccc1)NC(=O)C1CCN(c2c(Cl)cncc2Cl)CC1 (stereo not drawn) |
| 168 to 169 | CCOCc1nc2cnc3cccnc3c2n1CC1(O)CCOCC1 |

| melting point [°C] | SMILES |
| --- | --- |
| 147 to 149 | Nc1ccc(C23CC2C(=O)N(Cc2ccccc2)C3=O)cc1 (stereo not drawn) |
| 154 to 155 | CC(=O)NCCOc1ccc2c(-c3ccccc3F)noc2c1Cl |
| 73 to 75 | OC1Cc2ccc(C(F)(F)F)cc2Sc2ccc(F)cc21 (stereo not drawn) |
| 133 to 134 | CCN1c2ncc(C=O)cc2C(=O)N(C)c2ccc(F)nc21 |
| 137 to 139 | CC(C)C1NC(=O)CN1C(=O)CNC(=O)OCc1ccccc1 (stereo not drawn) |
| 72 | CCN(CC)C(=O)c1cc2ccccc2c(-c2ccccc2)n1 |
| 73 to 76 | CCCc1c(OCCCCCNC(=O)NCCCCc2cccnc2)ccc(C(C)=O)c1O |
| > 200 | Cc1cc(=O)n(Cc2ccccc2)[nH]c1=O |
| 85 to 100 | CC(C)(C)OC(=O)NC[C@H]1CN(c2ccc3c(c2)CCCc2cn[nH]c2-3)C(=O)O1 |
| 92 to 94 | CC(C)(C)OC(=O)Nc1ccc(I)cc1[N+](=O)[O-] |
| 146 | COc1cc(NCCN2CCC(Nc3nc4ccccc4n3Cc3ccc(F)cc3)CC2)ncn1 |
| 253 to 257 | Cc1c(F)c(N)nc(-n2cc(C(=O)O)c(=O)c3cc(F)c(F)c(Cl)c32)c1F |
| 302 to 303 | COc1ccc(Cl)cc1-c1c(Sc2ncccn2)c(=O)[nH]c2ccc(C(F)(F)F)cc12 |
| 138 to 140 | CCC1(c2ccc(=O)[nH]n2)CCCCC1 |
| 168 | CCOC(=O)c1nc(C(=O)Oc2ccccc2)sc1N |
| 107 to 108 | CC(C)CCCC(C)C1CCC2C3CCC4CC(OC=O)CCC4(C)C3CCC12C (stereo not drawn) |
| 68 to 72 | O=c1cc(C(F)(F)F)[nH]c(=O)n1-c1cc(O)c(Cl)cc1F |
| 214 to 215 | CCc1nc2c(N)nc3cc(OCc4ccccc4)ccc3c2n1CCCCNS(C)(=O)=O |
| 122 to 125 | CCOC(=O)CSc1cc(Cl)nc(NCc2ccc(Cl)cc2)n1 |
| 90 | CC#CCOc1ccc(S(=O)(=O)C(C(=O)O)C2CCN(C(=O)c3ccccc3)CC2)cc1 (stereo not drawn) |
| 104 to 108 | CCc1ccc(Nc2c(F)c(F)cc(F)c2F)c(CC(=O)OC(C)(C)C(=O)O)c1 |
| 118 to 119 | CC(=O)C(C)(C)N1COC(C)=C(c2ccccc2)C1=O |

| SMILES | melting point [°C] |
| --- | --- |
| Cc1nnc2n1-c1ccc(C#CCN3C(=O)CCc4ccccc43)cc1C(c1ccccc1F)=NC2 | 236 to 239 |
| O=C(OCCC1CC1)c1ncn2c1[C@@H]1CCCN1C(=O)c1c(Cl)cccc1-2 | 163 to 164 |
| CCCc1c(C(=O)C2CC2)c2ccc(C(N)=O)cc2n1Cc1ccccc1Cl | 162 to 164 |
| O=c1oc2ccccc2c(O)c1CCCOc1ccccc1 | 125 to 126 |
